Measured values from patent publication US20260325533A1, “CDK INHIBITOR COMPOUNDS” (ALEKSIA THERAPEUTICS, INC., priority 2023, published 2026).
Read-outs that look alike come from different tables or passages of the source.

Assays:
Assay type in all cases: biochemical
CDK2/CCNE1 = CDK2/CCNE1 (Homo sapiens, UniProt P24941); experiment: CDK2 homogeneous time-resolved fluorescence (HTRF) kinase assay
Outline: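 TR-FRET read-out (665 nm, or 665/615 ratio) of Eu-antibody detection of phospho-4E-BP1 (Thr37/46) ULight peptide. Enzyme 3 nM, ATP 1 mM, peptide 50 nM, 1% DMSO; 60 min reaction at 23 °C after 20 min compound preincubation. IC50 from 11-point half-log titrations, top typically 10 μM.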

CDK6/CCND1 = CDK6/CCND1 (Homo sapiens, UniProt Q00534); experiment: CDK6 homogeneous time-resolved fluorescence (HTRF) kinase assay
CDK6/CCND1, sequence (Q00534 whole entry): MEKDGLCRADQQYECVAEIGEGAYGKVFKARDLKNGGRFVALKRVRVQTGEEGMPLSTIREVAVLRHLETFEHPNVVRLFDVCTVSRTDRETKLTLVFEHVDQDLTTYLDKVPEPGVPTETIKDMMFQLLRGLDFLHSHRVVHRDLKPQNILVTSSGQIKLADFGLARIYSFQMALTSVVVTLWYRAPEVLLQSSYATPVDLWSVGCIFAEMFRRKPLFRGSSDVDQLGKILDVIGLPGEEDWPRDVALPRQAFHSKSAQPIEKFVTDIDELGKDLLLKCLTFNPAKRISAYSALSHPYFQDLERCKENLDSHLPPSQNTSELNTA
CDK6/CCND1, sequence (P24385 whole entry partner): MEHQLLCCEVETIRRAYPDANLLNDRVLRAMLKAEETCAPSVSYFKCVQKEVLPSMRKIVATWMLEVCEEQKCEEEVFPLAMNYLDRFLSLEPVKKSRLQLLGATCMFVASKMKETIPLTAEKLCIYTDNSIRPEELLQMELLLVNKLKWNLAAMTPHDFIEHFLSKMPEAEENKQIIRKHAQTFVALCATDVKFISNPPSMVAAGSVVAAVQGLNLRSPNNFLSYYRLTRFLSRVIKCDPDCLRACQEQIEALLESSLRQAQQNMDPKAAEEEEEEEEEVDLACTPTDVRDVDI
Outline: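 Assay conditions: HEPES buffer containing 10 mM MgCl2, 1 mM EGTA, 2 mM DTT, 0.01% Tween 20; 1 nM CDK6/CCND1, 50 nM peptide substrate, 1 mM ATP. Detection after 60 min reaction used 2 nM europium antibody with 340 nm excitation. Potency fitted from half-log series, 11 points.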

CDK4/CCND3 = CDK4/CCND3 (Homo sapiens, UniProt P11802); experiment: CDK4 homogeneous time-resolved fluorescence (HTRF) kinase assay
CDK4/CCND3, sequence (P11802 whole entry): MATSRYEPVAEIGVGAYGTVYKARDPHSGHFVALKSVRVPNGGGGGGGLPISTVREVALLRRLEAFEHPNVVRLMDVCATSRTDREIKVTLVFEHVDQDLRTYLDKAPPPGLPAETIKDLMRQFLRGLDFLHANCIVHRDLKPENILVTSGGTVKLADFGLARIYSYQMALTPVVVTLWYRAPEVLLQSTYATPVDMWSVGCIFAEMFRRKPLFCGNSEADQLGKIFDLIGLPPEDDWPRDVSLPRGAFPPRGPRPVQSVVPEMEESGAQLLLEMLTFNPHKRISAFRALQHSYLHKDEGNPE
CDK4/CCND3, sequence (P30281 whole entry partner): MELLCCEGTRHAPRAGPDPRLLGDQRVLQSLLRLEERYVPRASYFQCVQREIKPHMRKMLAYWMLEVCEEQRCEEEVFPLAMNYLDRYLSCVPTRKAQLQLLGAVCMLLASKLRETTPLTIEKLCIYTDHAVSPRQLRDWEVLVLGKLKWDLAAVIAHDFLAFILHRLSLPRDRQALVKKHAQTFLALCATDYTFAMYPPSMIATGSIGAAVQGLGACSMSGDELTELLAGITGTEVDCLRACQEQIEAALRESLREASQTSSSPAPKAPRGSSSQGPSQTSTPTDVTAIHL
Outline: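 IC50s derive from Lance 665 nm or 665/615 nm signals in 11-point, half-log dose series (top 10 μM, 1% DMSO). The enzyme, 1.5 nM CDK4/CCND3, phosphorylates 50 nM ULight-4E-BP1 peptide with 1 mM ATP over 60 min at 23 °C.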

CDK1/CCNB1 = CDK1/CCNB1 (Homo sapiens, UniProt P06493); experiment: CDK1 homogeneous time-resolved fluorescence (HTRF) kinase assay
CDK1/CCNB1, sequence (P06493 whole entry): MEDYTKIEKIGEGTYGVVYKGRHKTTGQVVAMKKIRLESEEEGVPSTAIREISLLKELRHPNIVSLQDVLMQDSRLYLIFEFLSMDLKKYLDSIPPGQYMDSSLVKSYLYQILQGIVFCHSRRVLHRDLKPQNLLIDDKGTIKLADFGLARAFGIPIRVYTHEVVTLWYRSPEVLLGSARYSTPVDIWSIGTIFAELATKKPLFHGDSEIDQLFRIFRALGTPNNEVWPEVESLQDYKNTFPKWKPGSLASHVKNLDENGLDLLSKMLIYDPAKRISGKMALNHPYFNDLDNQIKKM
CDK1/CCNB1, sequence (P14635 whole entry partner): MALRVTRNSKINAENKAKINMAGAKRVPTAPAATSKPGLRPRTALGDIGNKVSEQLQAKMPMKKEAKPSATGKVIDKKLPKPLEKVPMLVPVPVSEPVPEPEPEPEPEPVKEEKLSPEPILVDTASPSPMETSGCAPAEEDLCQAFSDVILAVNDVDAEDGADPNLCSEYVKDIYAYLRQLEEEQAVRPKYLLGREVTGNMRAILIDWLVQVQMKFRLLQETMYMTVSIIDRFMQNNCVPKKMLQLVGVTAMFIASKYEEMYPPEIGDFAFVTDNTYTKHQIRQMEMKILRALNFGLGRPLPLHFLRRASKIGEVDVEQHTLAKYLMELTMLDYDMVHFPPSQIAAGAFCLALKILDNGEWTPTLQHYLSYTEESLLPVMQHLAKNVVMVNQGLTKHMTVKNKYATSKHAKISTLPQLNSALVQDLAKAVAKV
Outline: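 CDK1/CCNB1 0.5 nM + cpd, 20 min 23 °C; add 1 mM ATP, 50 nM ULight-4E-BP1 peptide, 60 min 23 °C; stop 10 mM EDTA; 2 nM Eu-Ab, 60 min; HTRF 665 nm. 11-pt half-log, top 10 μM typical; IC50.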

[1] = <25 nM, CDK2/CCNE, read-out: CDK2/CCNE IC50, <25 nM
[2] = 25-250 nM, CDK6/CCND, 1 mM ATP, read-out: CDK6/CCND IC50, 25-250 nM
[3] = 25-250 nM, CDK4/CCND, read-out: CDK4/CCND IC50, 25-250 nM
[4] = 25-250 nM, CDK1/CCNB, read-out: CDK1/CCNB IC50, 25-250 nM
[5] = CDK2/CCNE, 25-250 nM marked x, read-out: CDK2/CCNE IC50 25-250 nM
[6] = CDK6/CCND, >250 nM marked x, read-out: CDK6/CCND IC50 >250 nM
[7] = CDK4/CCND, >250 nM marked x, read-out: CDK4/CCND IC50 >250 nM
[8] = CDK1/CCNB, >250 nM marked x, read-out: CDK1/CCNB IC50 >250 nM
[9] = >250 nM, CDK1/CCNB, read-out: CDK1/CCNB IC50 >250 nM
[10] = CDK2/CCNE, >250 nM marked x, read-out: CDK2/CCNE IC50 >250 nM
[11] = CDK2/CCNE, x = IC50 25-250 nM, read-out: CDK2/CCNE IC50 (25-250 nM)
[12] = CDK6/CCND, x = IC50 >250 nM, read-out: CDK6/CCND IC50 (>250 nM column)
[13] = CDK4/CCND, x = IC50 >250 nM, read-out: CDK4/CCND IC50 (>250 nM column)
[14] = CDK1/CCNB, x = IC50 >250 nM, read-out: CDK1/CCNB IC50 (>250 nM column)
[15] = CDK2/CCNE, <25 nM, read-out: CDK2/CCNE IC50 <25 nM
[16] = CDK6/CCND, 25-250 nM marked x, read-out: CDK6/CCND IC50 25-250 nM
[17] = CDK4/CCND, 25-250 nM marked x, read-out: CDK4/CCND IC50 25-250 nM
[18] = CDK6/CCND, <25 nM, read-out: CDK6/CCND IC50 <25 nM

Cc1c(-c2nccc3cnc(Nc4ccc(S(=O)(=O)N(C)c5ncccn5)cc4)cc23)ccc2c1cnn2CC(C)(C)O [Ex 734, 4-((5-(1-(2-hydroxy-2-methylpropyl)-4-methyl-1H-indazol-5-yl)-2,6-naphthyridin-3-yl)amino)-N-methyl-N-(pyrimidin-2-yl)benzenesulfonamide]
IC50 (CDK2/CCNE1; [1]): < 25 nM | IC50 (CDK6/CCND1; [2]): 25 to 250 nM | IC50 (CDK4/CCND3; [3]): 25 to 250 nM | IC50 (CDK1/CCNB1; [4]): 25 to 250 nM

C=CS(=O)(=O)c1ccc(Nc2cc3c(-c4cccc(C#N)c4)nccc3cn2)cc1 [Ex 136, 3-(7-((4-(vinylsulfonyl)phenyl)amino)-2,6-naphthyridin-1-yl)benzonitrile]
IC50 (CDK2/CCNE1; [5]): 25 to 250 nM | IC50 (CDK6/CCND1; [6]): > 250 nM | IC50 (CDK4/CCND3; [7]): > 250 nM | IC50 (CDK1/CCNB1; [8]): > 250 nM

COc1ccnc(NS(=O)(=O)c2ccc(Nc3cc4c(-c5ccc6c(cnn6CC(C)(C)O)c5C)nccc4cn3)cc2)n1 [Ex 897, 4-((5-(1-(2-hydroxy-2-methylpropyl)-4-methyl-1H-indazol-5-yl)-2,6-naphthyridin-3-yl)amino)-N-(4-methoxypyrimidin-2-yl)benzenesulfonamide]
IC50 (CDK2/CCNE1; [1]): < 25 nM | IC50 (CDK6/CCND1; [2]): 25 to 250 nM | IC50 (CDK4/CCND3; >250 nM, CDK4/CCND, read-out: CDK4/CCND IC50, >250 nM): > 250 nM | IC50 (CDK1/CCNB1; [9]): > 250 nM

CCC1(CC)C(=O)Nc2cc(C#Cc3nccc4cnc(Nc5ccc(S(=N)(=O)CC(F)(F)F)cc5OC)cc34)ccc21 (single isomer, unassigned) [Ex 281, 3,3-diethyl-6-((7-((2-methoxy-4-(2,2,2-trifluoroethylsulfonimidoyl)phenyl)amino)-2,6-naphthyridin-1-yl)ethynyl)indolin-2-one]
IC50 (CDK2/CCNE1; [10]): > 250 nM | IC50 (CDK6/CCND1; [6]): > 250 nM | IC50 (CDK4/CCND3; [7]): > 250 nM | IC50 (CDK1/CCNB1; [8]): > 250 nM

Cc1c(-c2nccc3cnc(Nc4ccc(S(N)(=O)=O)cc4)cc23)ccc2c1cnn2CC(C)(C)O [Ex 921, 4-((5-(1-(2-hydroxy-2-methylpropyl)-4-methyl-1H-indazol-5-yl)-2,6-naphthyridin-3-yl)amino)benzenesulfonamide]
IC50 (CDK2/CCNE1; [1]): < 25 nM | IC50 (CDK6/CCND1; [2]): 25 to 250 nM | IC50 (CDK4/CCND3; [3]): 25 to 250 nM | IC50 (CDK1/CCNB1; [4]): 25 to 250 nM

CN(C)C(=O)[C@H]1CC[C@H](c2nccc3cnc(Nc4ccc(S(C)(=O)=O)cc4)cc32)CC1 [Ex 225, (1r,4r)-N,N-dimethyl-4-(7-((4-(methylsulfonyl)phenyl)amino)-2,6-naphthyridin-1-yl)cyclohexane-1-carboxamide]
IC50 (CDK2/CCNE1; [10]): > 250 nM | IC50 (CDK6/CCND1; [6]): > 250 nM | IC50 (CDK4/CCND3; [7]): > 250 nM | IC50 (CDK1/CCNB1; [8]): > 250 nM

Cc1ccc(C#Cc2nccc3cnc(Nc4ccc(S(C)(=O)=O)cc4)cc23)c(N)n1 [Ex 581, 5-((2-amino-6-methylpyridin-3-yl)ethynyl)-N-(4-(methylsulfonyl)phenyl)-2,6-naphthyridin-3-amine]
IC50 (CDK2/CCNE1; [11]): 25 to 250 nM | IC50 (CDK6/CCND1; [12]): > 250 nM | IC50 (CDK4/CCND3; [13]): > 250 nM | IC50 (CDK1/CCNB1; [14]): > 250 nM

Cc1cc(N2CCC(C#N)CC2)c2nc(Nc3ccc(S(C)(=O)=O)cc3)ncc2c1 [Example 954, 1-(6-methyl-2-((4-(methylsulfonyl)phenyl)amino)quinazolin-8-yl)piperidine-4-carbonitrile]
IC50 (CDK2/CCNE1; 3 nM CDK2/CCNE1, 1 mM ATP, read-out: CDK2/CCNE IC50 >250 nM): > 250 nM | IC50 (CDK6/CCND1; 1 nM CDK6/CCND1, 1 mM ATP, read-out: CDK6/CCND IC50 >250 nM): > 250 nM | IC50 (CDK4/CCND3; 1.5 nM CDK4/CCND3, 1 mM ATP, read-out: CDK4/CCND IC50 >250 nM): > 250 nM | IC50 (CDK1/CCNB1; 0.5 nM CDK1/CCNB1, 1 mM ATP, read-out: CDK1/CCNB IC50 >250 nM): > 250 nM

CS(=O)(=O)c1ccc(Nc2cc3c(C#Cc4cnc(N)nn4)nccc3cn2)cc1 [Ex 613, 5-((3-amino-1,2,4-triazin-6-yl)ethynyl)-N-(4-(methylsulfonyl)phenyl)-2,6-naphthyridin-3-amine]
IC50 (CDK2/CCNE1; [11]): 25 to 250 nM | IC50 (CDK6/CCND1; [12]): > 250 nM | IC50 (CDK4/CCND3; [13]): > 250 nM | IC50 (CDK1/CCNB1; [14]): > 250 nM

CS(=O)(=O)N1CCC(Nc2cc3c(-c4cccc(C#N)c4)nccc3cn2)CC1 [Ex 75, 3-(7-((1-(methylsulfonyl)piperidin-4-yl)amino)-2,6-naphthyridin-1-yl)benzonitrile]
IC50 (CDK2/CCNE1; [15]): < 25 nM | IC50 (CDK6/CCND1; [16]): 25 to 250 nM | IC50 (CDK4/CCND3; [17]): 25 to 250 nM | IC50 (CDK1/CCNB1; [8]): > 250 nM

CS(=O)(=O)c1ccc(Nc2cc3c(C#Cc4n[nH]c5cccc(F)c45)nccc3cn2)cc1 [Ex 551, 5-((4-fluoro-1H-indazol-3-yl)ethynyl)-N-(4-(methylsulfonyl)phenyl)-2,6-naphthyridin-3-amine]
IC50 (CDK2/CCNE1; [11]): 25 to 250 nM | IC50 (CDK6/CCND1; CDK6/CCND, x = IC50 <25 nM, read-out: CDK6/CCND IC50 (<25 nM)): < 25 nM | IC50 (CDK4/CCND3; [13]): > 250 nM | IC50 (CDK1/CCNB1; [14]): > 250 nM

CS(=O)(=O)c1ccc(Nc2cc3c(C#Cc4ccc(N5CCCC(Cl)(Cl)C5=O)cc4)nccc3cn2)cc1 [Ex 506, 3,3-dichloro-1-(4-((7-((4-(methylsulfonyl)phenyl)amino)-2,6-naphthyridin-1-yl)ethynyl)phenyl)piperidin-2-one]
IC50 (CDK2/CCNE1; CDK2/CCNE, x = IC50 >250 nM, read-out: CDK2/CCNE IC50 (>250 nM column)): > 250 nM | IC50 (CDK6/CCND1; [12]): > 250 nM | IC50 (CDK4/CCND3; [13]): > 250 nM | IC50 (CDK1/CCNB1; [14]): > 250 nM

CS(=O)(=O)c1ccc(Nc2cc3c(C4=CCC(C#N)CC4)nccc3cn2)cc1 (racemic) [Ex 121, 4-(7-((4-(methylsulfonyl)phenyl)amino)-2,6-naphthyridin-1-yl)cyclohex-3-ene-1-carbonitrile]
IC50 (CDK2/CCNE1; [15]): < 25 nM | IC50 (CDK6/CCND1; [16]): 25 to 250 nM | IC50 (CDK4/CCND3; [17]): 25 to 250 nM | IC50 (CDK1/CCNB1; [8]): > 250 nM

COc1ccc(NS(=O)(=O)c2ccc(Nc3cc4c(-c5ccc6c(cnn6CC(C)(C)O)c5C)nccc4cn3)cc2)nn1 [Ex 798, 4-((5-(1-(2-hydroxy-2-methylpropyl)-4-methyl-1H-indazol-5-yl)-2,6-naphthyridin-3-yl)amino)-N-(6-methoxypyridazin-3-yl)benzenesulfonamide]
IC50 (CDK2/CCNE1; [1]): < 25 nM | IC50 (CDK6/CCND1; [2]): 25 to 250 nM | IC50 (CDK4/CCND3; [3]): 25 to 250 nM | IC50 (CDK1/CCNB1; [9]): > 250 nM

Cc1c(-c2nccc3cnc(Nc4ccc(S(C)(=O)=O)cc4)cc23)ccc2c1cnn2CC1CNC1 [Ex 207, 5-(1-(azetidin-3-ylmethyl)-4-methyl-1H-indazol-5-yl)-N-(4-(methylsulfonyl)phenyl)-2,6-naphthyridin-3-amine]
IC50 (CDK2/CCNE1; [15]): < 25 nM | IC50 (CDK6/CCND1; [18]): < 25 nM | IC50 (CDK4/CCND3; CDK4/CCND, <25 nM, read-out: CDK4/CCND IC50 <25 nM): < 25 nM | IC50 (CDK1/CCNB1; CDK1/CCNB, 25-250 nM marked x, read-out: CDK1/CCNB IC50 25-250 nM): 25 to 250 nM

Cc1c(-c2nccc3cnc(Nc4ccc(S(C)(=O)=O)cc4)cc23)ccc2c1cnn2CC1CCNC1 (racemic) [Ex 193, 5-(4-methyl-1-(pyrrolidin-3-ylmethyl)-1H-indazol-5-yl)-N-(4-(methylsulfonyl)phenyl)-2,6-naphthyridin-3-amine]
IC50 (CDK2/CCNE1; [15]): < 25 nM | IC50 (CDK6/CCND1; [16]): 25 to 250 nM | IC50 (CDK4/CCND3; [17]): 25 to 250 nM | IC50 (CDK1/CCNB1; [8]): > 250 nM

CS(=O)(=O)N1CCC(Nc2cc3c(-c4ccccc4OC(F)(F)F)nccc3cn2)CC1 [Ex 81, N-(1-(methylsulfonyl)piperidin-4-yl)-5-(2-(trifluoromethoxy)phenyl)-2,6-naphthyridin-3-amine]
IC50 (CDK2/CCNE1; [15]): < 25 nM | IC50 (CDK6/CCND1; [16]): 25 to 250 nM | IC50 (CDK4/CCND3; [17]): 25 to 250 nM | IC50 (CDK1/CCNB1; [8]): > 250 nM

COC1CCN(c2nccc3cnc(NC4CCN(S(C)(=O)=O)CC4)cc23)CC1 [Ex 50, 5-(4-methoxypiperidin-1-yl)-N-(1-(methylsulfonyl)piperidin-4-yl)-2,6-naphthyridin-3-amine]
IC50 (CDK2/CCNE1; [5]): 25 to 250 nM | IC50 (CDK6/CCND1; [18]): < 25 nM | IC50 (CDK4/CCND3; [17]): 25 to 250 nM | IC50 (CDK1/CCNB1; [8]): > 250 nM
